Read-outs that look alike come from different tables or passages of the source.
Experiments:
Type in all cases: cell-based
[1] = system: Enterococcus faecalis (EFA); test: MIC, two-fold agar dilution (CLSI), clinical isolates
Outline: (§1)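 Samples are serially diluted two-fold in agar following CLSI guidance. Plates are then inoculated with the tested strains. The lowest inhibiting concentration is recorded as MIC.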

[2] = system: Enterococcus faecium (EFM); test: as above
Outline: as §1

[3] = system: Escherichia coli (including ESBLs, non-ESBLs); test: as above; details: for Anti-bacterial activity (MIC), strain ECO+ 15-1: clinical isolate ECO+ 15-1; for Anti-bacterial activity (MIC), strain ECO+ 15-2: clinical isolate ECO+ 15-2; for Anti-bacterial activity (MIC), strain ECO+ 15-3: clinical isolate ECO+ 15-3; for Anti-bacterial activity (MIC), strain ECO+ 15-4: clinical isolate ECO+ 15-4; for Anti-bacterial activity (MIC), strain ECO− 15-1: clinical isolate ECO− 15-1; for Anti-bacterial activity (MIC), strain ECO− 15-2: clinical isolate ECO− 15-2; for Anti-bacterial activity (MIC), strain ECO− 15-3: clinical isolate ECO− 15-3; for Anti-bacterial activity (MIC), strain ECO− 15-4: clinical isolate ECO− 15-4
Outline: as §1

[4] = system: Moraxella catarrhalis (BCA); test: as above
Outline: as §1

[5] = system: Streptococcus pneoumoniae (SPN); test: as above
Outline: as §1

[6] = system: methicillin-resistant Staphylococcus aureus (MRSA); test: as above; details: for Anti-bacterial activity (MIC), strain MRSA 15-1: clinical isolate MRSA 15-1; for Anti-bacterial activity (MIC), strain MRSA 15-2: clinical isolate MRSA 15-2; for Anti-bacterial activity (MIC), strain MRSA 15-3: clinical isolate MRSA 15-3; for Anti-bacterial activity (MIC), strain MRSA 15-4: clinical isolate MRSA 15-4
Outline: as §1

[7] = system: methicillin-resistant Staphylococcus epidermidis (MRSE); test: as above; details: for Anti-bacterial activity (MIC), strain MRSE 15-1: clinical isolate MRSE 15-1; for Anti-bacterial activity (MIC), strain MRSE 15-2: clinical isolate MRSE 15-2; for Anti-bacterial activity (MIC), strain MRSE 15-3: clinical isolate MRSE 15-3; for Anti-bacterial activity (MIC), strain MRSE 15-7: clinical isolate MRSE 15-7
Outline: as §1

[8] = system: methicillin-sensitive Staphylococcus aureus (MSSA); test: as above; details: for Anti-bacterial activity (MIC), strain MSSA 15-3: clinical isolate MSSA 15-3; for Anti-bacterial activity (MIC), strain MSSA 15-4: clinical isolate MSSA 15-4; for Anti-bacterial activity (MIC), strain MSSA 15-5: clinical isolate MSSA 15-5; for Anti-bacterial activity (MIC), strain MSSA 15-6: clinical isolate MSSA 15-6
Outline: as §1

[9] = system: methicillin-sensitive Staphylococcus epidermidis (MSSE); test: as above; details: for Anti-bacterial activity (MIC), strain MSSE 15-3: clinical isolate MSSE 15-3; for Anti-bacterial activity (MIC), strain MSSE 15-4: clinical isolate MSSE 15-4; for Anti-bacterial activity (MIC), strain MSSE 15-5: clinical isolate MSSE 15-5; for Anti-bacterial activity (MIC), strain MSSE 15-6: clinical isolate MSSE 15-6
Outline: as §1

[10] = system: HCT-116 colorectal cancer cell line; test: CCK-8 proliferation inhibition; details: concentration of 30 μM, 72 hours, CCK-8; for inhibition at 30 µM: Homo sapiens, HCT-116, 72 h
Outline: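 Cells seeded at 2000 cells/well, cultured overnight at 37 °C, 5% CO2, then exposed to compound (DMSO; control 1‰ DMSO) for 72 h in McCoy's 5A with 10% newborn bovine serum. Viability read with 1:10 diluted CCK-8.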

[11] = system: A549 lung cancer cell line; test: CCK-8 proliferation inhibition; details: concentration of 30 μM; for inhibition at 30 µM: Homo sapiens, A549, 72 h
Outline: (§2)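 Plating at 2000 cells/well, then incubation overnight at 37° C. Next, a range of compound concentrations for 72 hours (control 1‰ DMSO). Finally, medium decanted and CCK-8 diluted 1:10 added.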

[12] = system: BEL-7402 liver cancer cell line; test: CCK-8 proliferation inhibition; details: concentration of 30 μM; for inhibition at 30 µM: Homo sapiens, Bel-7402, 72 h
Outline: as §2

[13] = system: MGC-803 gastric cancer cell line; test: CCK-8 proliferation inhibition; details: Homo sapiens, MGC-803, 72 h, concentration of 30 μM
Outline: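 Cells seeded at 2000 cells/well, cultured overnight at 37 °C, 5% CO2, then exposed 72 h to compound dilutions in medium with 10% newborn bovine serum (1‰ DMSO control). Viability read with 1:10 diluted CCK-8 solution. Media: PC3 in F12; MGC-803 and Jurkat in 1640; MCF-7 in DMEM high glucose.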

[14] = read-out: HCT116 inhibition rate/%

O=C(C[C@@H](CC1CCCC1)C(=O)N1CC2(CC2)C[C@H]1C(=O)Nc1ccno1)NO [Example 70, (S)-5-((R)-2-(cyclopentylmethyl)-4-(hydroxyamino)-4-oxobutyl)-N-(isoxazol-5-yl)-5-spiro[2.4]heptane-6-carboxamide]
0.2 µg/mL: Anti-bacterial activity (MIC) ([2]; strain EFM 15-5)
2 µg/mL: Anti-bacterial activity (MIC) ([2]; strain EFM 15-6) | Anti-bacterial activity (MIC) ([4]; strain BCA 14-4) | Anti-bacterial activity (MIC) ([4]; strain BCA 14-5) | Anti-bacterial activity (MIC) ([4]; strain BCA 14-6) | Anti-bacterial activity (MIC), strain MRSE 15-2 [7] | Anti-bacterial activity (MIC), strain MRSE 15-3 [7] | Anti-bacterial activity (MIC), strain MRSE 15-7 [7] | Anti-bacterial activity (MIC), strain MSSA 15-3 [8]
32 µg/mL: Anti-bacterial activity (MIC) ([1]; strain EFA 15-1) | Anti-bacterial activity (MIC) ([1]; strain EFA 15-2) | Anti-bacterial activity (MIC) ([1]; strain EFA 15-3) | Anti-bacterial activity (MIC) ([1]; strain EFA 15-4) | Anti-bacterial activity (MIC) ([1]; strain EFA 15-5) | Anti-bacterial activity (MIC) ([1]; strain EFA 15-6) | Anti-bacterial activity (MIC) ([2]; strain EFM 15-1) | Anti-bacterial activity (MIC) ([2]; strain EFM 15-2) | Anti-bacterial activity (MIC) ([2]; strain EFM 15-3) | Anti-bacterial activity (MIC), strain ECO+ 15-2 [3] | Anti-bacterial activity (MIC), strain ECO+ 15-3 [3] | Anti-bacterial activity (MIC), strain ECO− 15-2 [3] | Anti-bacterial activity (MIC), strain ECO− 15-3 [3]
62%: Inhibition of proliferation, Liver cancer BEL-7402 ([12]; 72 hours, 30 µM)
50%: inhibition at 30 µM [13]
16 µg/mL: Anti-bacterial activity (MIC), strain ECO+ 15-1 [3] | Anti-bacterial activity (MIC), strain ECO+ 15-4 [3] | Anti-bacterial activity (MIC), strain ECO− 15-1 [3] | Anti-bacterial activity (MIC), strain ECO− 15-4 [3] | Anti-bacterial activity (MIC), strain MSSA 15-6 [8]
1 µg/mL: Anti-bacterial activity (MIC) ([1]; strain EFA 15-9) | Anti-bacterial activity (MIC) ([2]; strain EFM 15-4) | Anti-bacterial activity (MIC) ([4]; strain BCA 14-1) | Anti-bacterial activity (MIC) ([4]; strain BCA 14-8) | Anti-bacterial activity (MIC) ([4]; strain BCA 14-10) | Anti-bacterial activity (MIC), strain MRSA 15-2 [6] | Anti-bacterial activity (MIC), strain MRSA 15-4 [6] | Anti-bacterial activity (MIC), strain MSSE 15-4 [9] | Anti-bacterial activity (MIC), strain MSSE 15-5 [9]
0.25 µg/mL: Anti-bacterial activity (MIC) ([5]; strain SPN 16-4) | Anti-bacterial activity (MIC), strain MSSA 15-5 [8] | Anti-bacterial activity (MIC), strain MSSE 15-6 [9]
4 µg/mL: Anti-bacterial activity (MIC) ([4]; strain BCA 14-7)
0.5 µg/mL: Anti-bacterial activity (MIC) ([5]; strain SPN 16-2) | Anti-bacterial activity (MIC), strain MRSA 15-1 [6] | Anti-bacterial activity (MIC), strain MRSA 15-3 [6] | Anti-bacterial activity (MIC), strain MRSE 15-1 [7] | Anti-bacterial activity (MIC), strain MSSA 15-4 [8] | Anti-bacterial activity (MIC), strain MSSE 15-3 [9]
64%: HCT116 inhibition rate/% ([10]; 30 µM)
> 50%: inhibition at 30 µM [10, 14] | inhibition at 30 µM [11] | inhibition at 30 µM [12]
54%: Inhibition of proliferation, Lung cancer A549 ([11]; 72 hours, 30 µM)

Cc1cc(NC(=O)[C@@H]2CC3(CC3)CN2C(=O)[C@@H](CC(=O)NO)CC2CCCC2)no1 [Example 71]
0.06 µg/mL: Anti-bacterial activity (MIC), strain MRSE 15-1 [7] | Anti-bacterial activity (MIC), strain MSSA 15-5 [8] | Anti-bacterial activity (MIC), strain MSSE 15-4 [9] | Anti-bacterial activity (MIC), strain MSSE 15-5 [9] | Anti-bacterial activity (MIC), strain MSSE 15-6 [9]
≥ 30%: inhibition at 30 µM ([10]; Table 5, read-out: Inhibition of proliferation, Colorectal cancer HCT116)
32 µg/mL: Anti-bacterial activity (MIC), strain ECO+ 15-3 [3] | Anti-bacterial activity (MIC), strain ECO+ 15-4 [3] | Anti-bacterial activity (MIC), strain ECO− 15-4 [3]
0.16 µg/mL: Anti-bacterial activity (MIC), strain MSSE 15-3 [9]
30%: inhibition at 30 µM [10, 14]
49%: inhibition at 30 µM [12]
2 µg/mL: Anti-bacterial activity (MIC) ([1]; strain EFA 15-1) | Anti-bacterial activity (MIC) ([1]; strain EFA 15-2) | Anti-bacterial activity (MIC) ([1]; strain EFA 15-4) | Anti-bacterial activity (MIC) ([1]; strain EFA 15-5) | Anti-bacterial activity (MIC) ([1]; strain EFA 15-6) | Anti-bacterial activity (MIC) ([2]; strain EFM 15-2) | Anti-bacterial activity (MIC) ([2]; strain EFM 15-4) | Anti-bacterial activity (MIC) ([5]; strain SPN 16-2)
0.125 µg/mL: Anti-bacterial activity (MIC) ([2]; strain EFM 15-5) | Anti-bacterial activity (MIC) ([4]; strain BCA 14-10) | Anti-bacterial activity (MIC), strain MRSA 15-1 [6] | Anti-bacterial activity (MIC), strain MRSA 15-3 [6] | Anti-bacterial activity (MIC), strain MRSE 15-2 [7] | Anti-bacterial activity (MIC), strain MRSE 15-3 [7] | Anti-bacterial activity (MIC), strain MSSA 15-4 [8]
0.5 µg/mL: Anti-bacterial activity (MIC) ([1]; strain EFA 15-3) | Anti-bacterial activity (MIC) ([2]; strain EFM 15-1) | Anti-bacterial activity (MIC) ([2]; strain EFM 15-6) | Anti-bacterial activity (MIC) ([4]; strain BCA 14-1) | Anti-bacterial activity (MIC) ([4]; strain BCA 14-4) | Anti-bacterial activity (MIC) ([4]; strain BCA 14-6) | Anti-bacterial activity (MIC) ([4]; strain BCA 14-7) | Anti-bacterial activity (MIC), strain MRSA 15-4 [6]
0.25 µg/mL: Anti-bacterial activity (MIC) ([2]; strain EFM 15-3) | Anti-bacterial activity (MIC) ([4]; strain BCA 14-5) | Anti-bacterial activity (MIC) ([4]; strain BCA 14-8) | Anti-bacterial activity (MIC) ([5]; strain SPN 16-4) | Anti-bacterial activity (MIC), strain MRSE 15-7 [7] | Anti-bacterial activity (MIC), strain MSSA 15-3 [8] | Anti-bacterial activity (MIC), strain MSSA 15-6 [8]
16 µg/mL: Anti-bacterial activity (MIC), strain ECO+ 15-1 [3] | Anti-bacterial activity (MIC), strain ECO+ 15-2 [3] | Anti-bacterial activity (MIC), strain ECO− 15-1 [3] | Anti-bacterial activity (MIC), strain ECO− 15-2 [3] | Anti-bacterial activity (MIC), strain ECO− 15-3 [3]
1 µg/mL: Anti-bacterial activity (MIC) ([1]; strain EFA 15-9) | Anti-bacterial activity (MIC), strain MRSA 15-2 [6]
34%: inhibition at 30 µM [13]
5%: inhibition at 30 µM [11]

— patent US10738028B2, “Spiro three-membered ring, spiro five-membered ring peptide deformylase inhibitor and use thereof in antibacteria and anti-tumor” (priority 2016, dated 2020)
